Test results from patent US20030119910A1, “Therapeutic or preventing agent for diseases caused by decrease in the expression level of klotho protein” (Kyowa Hakko Kogyo Co., Ltd., priority 2001, published 2003).

Key:
Format in all cases: in vivo, mouse
[1] = system: female klotho mutant homozygotes; test: Body weight of female klotho mutant homozygotes raised on feed; details: female homozygous individuals, ornithine in feed
Description: (§1) Mice carrying a klotho mutation were bred by mating a pair of heterozygous klotho mutant mice provided by Tumor Biology, Pathology, Kyoto University Graduate School of Medicine. Klotho mutant homozygotes, klotho mutant heterozygotes and wild-type mice were confirmed by PCR. Male klotho mutant homozygotes were raised on the feed prepared in Example 1 or the feed prepared in Comparative Example 1 and were intermittently weighed (number of animals: 4/group). The mice were given the powdery feed through a commercially available powder feeder (KN-675 No. 4, Natsume Seisakusho) and filtered running water, both ad libitum. […] The expression level of Klotho protein was expressed as relative values based on the average value of the group raised on the feed of Comparative Example 1 up to the age of 6 weeks as 100.
Female klotho mutant homozygotes obtained by the same method as in Example 3 were raised on the feed of Example 1 or the feed of Comparative Example 1 in the same manner as in Example 3 up to the age of 8 weeks, and their body weight was measured. […]
Female klotho mutant homozygotes obtained by the same method as in Example 3 were raised on the feed of Example 2 or the feed of Comparative Example 2 in the same manner as in Example 3 up to the age of 6 weeks, and their body weight was measured. […]

Klotho protein = test: Expression level of Klotho protein in the kidneys of male klotho mutant homozygotes raised on feed; details: male homozygous klotho mutant mice, ornithine in feed
Description: The determination of Klotho protein can be carried out by methods such as immune precipitation, Western blotting and enzyme-linked immunosorbent assay (ELISA) using an anti-Klotho protein antibody, and the determination of mRNA for the klotho gene can be carried out by methods such as Northern blot hybridization and reverse transcription-polymerase chain reaction (RT-PCR). The determination methods and methods for obtaining tissue samples, klotho gene, Klotho protein, probe DNA, primers, antibodies, etc. to be used in the determination are described in WO 98/29544.
as §1

[2] = system: female klotho mutant homozygotes; test: Life span of female klotho mutant homozygotes raised on feed; details: ornithine in feed
Description: Female klotho mutant homozygotes obtained by the same method as in Example 3 were raised on the feed of Example 1, the feed of Comparative Example 1, the feed of Example 2 or the feed of Comparative Example 2 (number of animals: 4/group) to observe their life span. The number of mice that died before reaching the age of 11 weeks was 0 and 2 in the groups fed on the feed of Example 1 and the feed of Comparative Example 1, respectively, and was 1 and 2 in the groups fed on the feed of Example 2 and the feed of Comparative Example 2, respectively.

[3] = system: male homozygous klotho mutant mice; test: Male klotho mutant homozygotes raised on feed: indices of premature aging-like syndrome (blood sugar, serum inorganic phosphorus, body weight); details: ornithine in feed
Description: Mice carrying a klotho mutation were bred by mating a pair of heterozygous klotho mutant mice provided by Tumor Biology, Pathology, Kyoto University Graduate School of Medicine. Klotho mutant homozygotes, klotho mutant heterozygotes and wild-type mice were confirmed by PCR. Male klotho mutant homozygotes were raised on the feed prepared in Example 1 or the feed prepared in Comparative Example 1 and were intermittently weighed (number of animals: 4/group). The mice were given the powdery feed through a commercially available powder feeder (KN-675 No. 4, Natsume Seisakusho) and filtered running water, both ad libitum. The mice were raised in an SPF (specific pathogen-free) room kept at a temperature of 24±1° C. and a humidity of 55±10%. The expression level of Klotho protein was expressed as relative values based on the average value of the group raised on the feed of Comparative Example 1 up to the age of 6 weeks as 100.

[4] = system: female homozygous klotho mutant mice; test: Breeding results of female homozygous klotho mutant mice raised on feed; details: ornithine in feed
Description: Male homozygous klotho mutant mice were raised on the feed of Comparative Example 3 and female homozygous klotho mutant mice were raised on the feed of Example 7 or the feed of Comparative Example 2, both to the age of 8 weeks. These male and female mice were mated and their breeding results were compared between the female group fed on the feed of Example 7 and that fed on the feed of Comparative Example 2. During the mating period, the males were transferred into the cages of females and so fed on the same feeds as the respective females.

In the case of `NCCC[C@H](N)C(=O)O` [ornithine], the “Effect on body weight” value [1] is reported as “weight-increasing effect”, the “Effect on expression level of kidney Klotho protein” value (Klotho protein) is reported as “effective in raising the expression level of kidney Klotho protein” and the “Effect on life span” value [2] is reported as “effective in prolonging life span”. The “Effect on premature aging-like syndrome” value [3] was “inhibitory effects on premature aging-like syndrome” and the “Effect on breeding result” value [4] was “improved the breeding result”.
